Laboratory results: US20150174186A1, “PHARMACEUTICAL COMPOSITION FOR PREVENTING OR TREATING STAT3-MEDIATED DISEASE, COMPRISING SALVIA PLEBEIA R. BR. EXTRACT OR FRACTION THEREOF AS ACTIVE INGREDIENT” (Korea Research Institute of Bioscience and Biotechnology, priority 2012, published 2015)

Key:
osteoclasts = assay: Differentiation and formation of osteoclasts from bone marrow macrophages (TRAP assay); type: cell-based, ICR mouse; conditions: BMM cells
Excerpt: Osteoclasts are known to directly affect bone resorption, and the differentiation and formation of osteoclasts play a very important role in osteoporosis. In order to examine the effect of the ethanol extract of Salvia plebeia R. Br. on the differentiation and formation of osteoclasts, the differentiation from bone marrow cells isolated from the femur of an ICR mouse into osteoclasts was observed.
Bone marrow cells were separated from the femur of a three- to six-week old ICR mouse, and the separated cells were treated with M-CSF (30 ng/ml) for 3 days, thereby inducing their differentiation into bone marrow macrophage (BMM). Then, the BMM was treated with M-CSF (30 ng/ml) and RANKL (100 ng/ml) for 4 days, thereby inducing them to be differentiated into osteoclasts. […] Then, the differentiation and formation of osteoclasts were confirmed by TRAP assay.

[1] = test system: mouse model with osteoporosis induced by ovariectomy; assay: Mouse model with osteoporosis induced by ovariectomy (DEXA, micro CT); type: in vivo, C57BL/6 mouse; conditions: compared to PBS after ovariectomy, oral, five weeks
Excerpt: Test groups were divided into a sham group (only surgery without ovary removal) and a group treated with ovariectomy (OVX). In the OVX group, the ovaries of an eight-week old female C57BL/6 mouse were removed by surgery and the mouse was bred for 6 weeks to induce osteoporosis. […] The sample was used after dissolving in PBS. Furthermore, the sham group was orally administered with PBS for five weeks.
Upon termination of five weeks' oral administration, the Bone Mineral Density (BMD) and Bone Mineral Content (BMC) of the mouse were measured using an osteoporosis analyzing device Dual-Energy X-ray Absorptiometry (DEXA; bone mineral density analyzer), and the results are shown in FIG. 21a-21d.
Upon termination of five weeks' oral administration, the mice of each experimental group were sacrificed, and the bones adjacent to tibia were separated. The bones were then photographed to obtain their 3-dimensional structures and cross-sections via micro CT, and the microstructures and volume of the bones and trabecular thickness were measured.

NCCCC(O)(P(=O)(O)O)P(=O)(O)O [alendronate]
differentiation of osteoclasts (osteoclasts; 10 μM): differentiation of osteoclasts was observed | formation of osteoclasts (osteoclasts; 30 and 60 μM): osteoclasts were not formed due to toxicity | Bone Mineral Content (BMC) [1]: significant increase
